Test results reported in patent US8629150B2, “Compounds for the treatment of hepatitis C” (priority 2011, dated 2014).

System: HCV pseudoparticles (genotype 1a HCV E1 and E2 envelope, H77C isolate)
Experiment: HCV pseudoparticle infection assay (luciferase, Huh7 cells)
Assay type: cell-based, HCV genotype 1a (H77C isolate)
Conditions: HCV pseudoparticle entry into Huh7 cells, luciferase 2 days after infection
[1] = Hepatitis C virus, Huh-7, 48 h, average of duplicates
[2] = Hepatitis C virus, Huh-7, 48 h, class symbol

Row | SMILES | EC50 (average of duplicates) [nM] | EC50 (class symbol) [nM] | EC50 [1] [nM] | EC50 [2] [nM]
1 | CC1(C)CCNC(=O)c2ccc(cc2)Nc2cc(nc(OCC(F)(F)F)n2)NCc2ccc(cc2)OCCCN1 [Compound 1001] | 907 | 100 to 1000 | – | –
2 | O=C1NCCCOCCCCOCCCNc2cc(nc(OCC(F)(F)F)n2)Nc2ccc1cn2 [Compound 1002] | – | – | 215 | 100 to 1000
3 | CC1(C)CNCCCOc2ccc(cc2)CNc2cc(nc(OCC(F)(F)F)n2)Nc2ccc(cn2)C(=O)NC1 [Compound 1003] | – | – | 0.21 | < 100
4 | C=C1CNCC(C)(C)CNC(=O)c2ccc(nc2)Nc2cc(nc(OCC(F)(F)F)n2)NCc2ccc(cc2)OC1 [Compound 1004] | – | – | 0.49 | < 100
5 | CC1CNCC(C)(C)CNC(=O)c2ccc(nc2)Nc2cc(nc(OCC(F)(F)F)n2)NCc2ccc(cc2)OC1 (centres unmarked) [Compound 1005] | – | – | 0.38 | < 100
6 | C[C@H]1CNCC(C)(C)CNC(=O)c2ccc(nc2)Nc2cc(nc(OCC(F)(F)F)n2)NCc2ccc(cc2)OC1 [Compound 1006] | – | – | 0.45 | < 100
7 | C[C@@H]1CNCC(C)(C)CNC(=O)c2ccc(nc2)Nc2cc(nc(OCC(F)(F)F)n2)NCc2ccc(cc2)OC1 [Compound 1007] | – | – | 0.19 | < 100
8 | CC1(C)CNCCCOc2ccc(cc2)CNc2cc(nc(OCC(F)(F)F)n2)Nc2ccc(cc2)C(=O)NC1 [Example 2001] | – | – | 1.34 | < 100
9 | CC1(C)CNCCCOc2ccc(c(F)c2)CNc2cc(nc(OCC(F)(F)F)n2)Nc2ccc(cc2)C(=O)NC1 [Example 2002] | – | – | 0.81 | < 100
10 | CC1(C)CNCCCOc2ccc(cc2F)CNc2cc(nc(OCC(F)(F)F)n2)Nc2ccc(cc2)C(=O)NC1 [Example 2003] | – | – | 0.76 | < 100
11 | O=C1NCC2(CC2)CNCCCOc2ccc(cc2)CNc2cc(nc(OCC(F)(F)F)n2)Nc2ccc1cc2 [Example 2004] | – | – | 396 | 100 to 1000
12 | C[C@H]1CNCCCOc2ccc(cc2)CNc2cc(nc(OCC(F)(F)F)n2)Nc2ccc(cc2)C(=O)NC1 [Example 2005] | – | – | 184 | 100 to 1000
13 | CC1(C)CCNC(=O)c2ccc(cc2)Nc2cc(nc(OCC(F)(F)F)n2)NCc2ccc(cc2)OCCCN1 [Example 2006] | 326 | – | – | 100 to 1000
